Experimental data reported in PMC11995724, “Antibiotic target discovery by integrated phenotypic and activity-based profiling of electrophilic fragments” (Cell chemical biology, 2025).

Assay: in vitro
Conditions: human, hek293t cells
Method: Mammalian cytotoxicity measurement was performed using Cell Titer-Glo 2.0 Cell Viability Assay (Promega, G9243) according to the manufacturer protocol. In brief, mammalian cells were seeded into 384-well white plates (Greiner, 781080) and incubated at 37°C for one day. Compounds from the Cys-Library were dispensed into the assay plate using epMotion 96. The plates were then incubated at 37°C for two days. An equal volume of Cell Titer-Glo 2.0 reagent was added into each well of the assay plate using epMotion 96 and incubated at 22°C for 10 min, followed by luminescence measurement using a Cytation 5 plate reader (BioTek).

In order of falling viability at 48 h, 25 µM:
1. C=CC(=O)N1CCC(S(=O)(=O)NC(C)C)C1 (centres unmarked) [1-D19, 1-(prop-2-enoyl)-N-(propan-2-yl)pyrrolidine-3-sulfonamide]  218%
2. C=CC(=O)NCC1CCCCN1S(C)(=O)=O (centres unmarked) [1-D17, N-[(1-methanesulfonylpiperidin-2-yl)methyl]prop-2-enamide]  161%
3. C=CC(=O)Nc1ccc(CN2CCC(C)CC2)cc1 [1-D21, N-{4-[(4-methylpiperidin-1-yl)methyl]phenyl}prop-2-enamide]  157%
4. C=CC(=O)Nc1ccc(F)cc1C(C)(F)F [1-C16, N-[2-(1,1-difluoroethyl)-4-fluorophenyl]prop-2-enamide]  137%
5. C=CC(=O)N(Cc1cnc(C2CC2)o1)C1CCCCC1C (centres unmarked) [1-D15, N-[(2-cyclopropyl-1,3-oxazol-5-yl)methyl]-N-(2-methylcyclohexyl)prop-2-enamide]  118%
6. C=CC(=O)Nc1ccc2c(c1)SCC(=O)N2 [1-C22, N-(3-oxo-3,4-dihydro-2H-1,4-benzothiazin-7-yl)prop-2-enamide]  109%
7. C=CC(=O)N1CCCC(c2nn(C)cc2C(N)=O)C1 (centres unmarked) [1-D07, 1-methyl-3-[1-(prop-2-enoyl)piperidin-3-yl]-1H-pyrazole-4-carboxamide]  107%
8. C=CC(=O)NCCc1csc(C)n1 [1-D13, N-[2-(2-methyl-1,3-thiazol-4-yl)ethyl]prop-2-enamide]  106%
9. C=CC(=O)NC1CCOc2c(F)cccc21 (centres unmarked) [1-D05, N-(8-fluoro-3,4-dihydro-2H-1-benzopyran-4-yl)prop-2-enamide]  99.1%
10. C=CC(=O)N1CCCCC1 [1-C12, 1-(piperidin-1-yl)prop-2-en-1-one]  98.4%
11. C=CC(=O)N(Cc1ccc(F)cn1)c1cnn(C2CCCC2)c1C [1-D11, N-(1-cyclopentyl-5-methyl-1H-pyrazol-4-yl)-N-[(5-fluoropyridin-2-yl)methyl]prop-2-enamide]  97.3%
12. C=CC(=O)Nc1ccc2c(c1)N(CC#N)CC2 [1-C19, N-[1-(cyanomethyl)-2,3-dihydro-1H-indol-6-yl]prop-2-enamide]  94.7%
13. C=CC(=O)N(C[C@H]1CCCO1)C1CCC(CC)CC1 (stereo partly drawn) [1-D03, N-(4-ethylcyclohexyl)-N-{[(2R)-oxolan-2-yl]methyl}prop-2-enamide]  94.6%
14. C=CC(=O)N1CCCC(n2ccnn2)C1 (centres unmarked) [1-D09, 1-[3-(1H-1,2,3-triazol-1-yl)piperidin-1-yl]prop-2-en-1-one]  93.6%
15. C=CC(=O)Nc1cc(C(C)(C)C)nn1-c1ncccn1 [1-E04, N-[3-tert-butyl-1-(pyrimidin-2-yl)-1H-pyrazol-5-yl]prop-2-enamide]  88.8%
16. C=CC(=O)N(C)C1CS(=O)(=O)C1 [1-E03, N-(1,1-dioxo-1lambda6-thietan-3-yl)-N-methylprop-2-enamide]  86.3%
17. C=CC(=O)N(C)Cc1c(C)nn(C)c1Cl [1-C15, N-[(5-chloro-1,3-dimethyl-1H-pyrazol-4-yl)methyl]-N-methylprop-2-enamide]  86.1%
18. C=CC(=O)NCc1c(C)nc2ccccn12 [1-C08, N-({2-methylimidazo[1,2-a]pyridin-3-yl}methyl)prop-2-enamide]  82.8%
19. C=CC(=O)Nc1ccc(OCCC)c(C)c1 [1-C20, N-(3-methyl-4-propoxyphenyl)prop-2-enamide]  80.1%
20. C=CC(=O)N1CCC(n2cc(C(N)=O)nn2)C1 (centres unmarked) [1-C18, 1-[1-(prop-2-enoyl)pyrrolidin-3-yl]-1H-1,2,3-triazole-4-carboxamide]  79.6%
21. C=CC(=O)NC1COCC1C (centres unmarked) [1-D06, N-(4-methyloxolan-3-yl)prop-2-enamide]  77.2%
22. C=CC(=O)Nc1ccc(N2CCN(CC)CC2)cc1 [1-D12, N-[4-(4-ethylpiperazin-1-yl)phenyl]prop-2-enamide]  77.2%
23. C=CC(=O)NCc1cnc(-c2ccc(C(F)(F)F)cc2)s1 [1-C13, N-({2-[4-(trifluoromethyl)phenyl]-1,3-thiazol-5-yl}methyl)prop-2-enamide]  75.8%
24. C=CC(=O)NC1CC(C2CCCCC2)C1 (centres unmarked) [1-D10, N-(3-cyclohexylcyclobutyl)prop-2-enamide]  75.7%
25. C=CC(=O)N1CC2(CCOCC2)C1c1ccco1 (centres unmarked) [1-D22, 1-[1-(furan-2-yl)-7-oxa-2-azaspiro[3.5]nonan-2-yl]prop-2-en-1-one]  72.1%
26. C=CC(=O)NC(CO)c1nc(C)no1 (centres unmarked) [1-C05, N-[2-hydroxy-1-(3-methyl-1,2,4-oxadiazol-5-yl)ethyl]prop-2-enamide]  71.4%
27. C=CC(=O)NCc1ccnc(N2CCOCC2)c1 [1-C09, N-{[2-(morpholin-4-yl)pyridin-4-yl]methyl}prop-2-enamide]  70.7%
28. C=CC(=O)N(Cc1cccc2ccoc12)C1CCSCC1 [1-D04, N-[(1-benzofuran-7-yl)methyl]-N-(thian-4-yl)prop-2-enamide]  70.4%
29. C=CC(=O)NCc1coc(-c2cccs2)n1 [1-C07, N-{[2-(thiophen-2-yl)-1,3-oxazol-4-yl]methyl}prop-2-enamide]  70.1%
30. C=CC(=O)N1CCC(F)CC1 [1-D14, 1-(4-fluoropiperidin-1-yl)prop-2-en-1-one]  69.9%
31. C=CC(=O)Nc1ccc(C(C)Sc2ccccc2)cc1 (centres unmarked) [1-C21, N-{4-[1-(phenylsulfanyl)ethyl]phenyl}prop-2-enamide]  69.7%
32. C=CC(=O)N1CCn2c(nnc2C(F)(F)F)C1 [1-D18, 1-[3-(trifluoromethyl)-5H,6H,7H,8H-[1,2,4]triazolo[4,3-a]pyrazin-7-yl]prop-2-en-1-one]  66.6%
33. C=CC(=O)Nc1ccc(OC)cc1S(C)(=O)=O [1-C04, N-(2-methanesulfonyl-4-methoxyphenyl)prop-2-enamide]  65.8%
34. C=CC(=O)NCC(=O)c1scc(C)c1Cl [1-D16, N-[2-(3-chloro-4-methylthiophen-2-yl)-2-oxoethyl]prop-2-enamide]  65.2%
35. C=CC(=O)NC1CCN(c2ccc(Cl)c(Cl)c2)C1 (centres unmarked) [1-C14, N-[1-(3,4-dichlorophenyl)pyrrolidin-3-yl]prop-2-enamide]  52.9%
36. C=CC(=O)N1CCC(C(=O)N2CCc3ccc([N+](=O)[O-])cc32)CC1 [1-C06, 1-[4-(6-nitro-2,3-dihydro-1H-indole-1-carbonyl)piperidin-1-yl]prop-2-en-1-one]  49.9%
37. C=CC(=O)NCc1ccc(F)c(F)c1 [1-C10, N-[(3,4-difluorophenyl)methyl]prop-2-enamide]  49.1%
38. C=CC(=O)Nc1c2c(cc3c1CCC3)CCC2 [1-C11, N-(1,2,3,5,6,7-hexahydro-s-indacen-4-yl)prop-2-enamide]  45.8%
39. C=CC(=O)Nc1cc(NC(=O)C2CC3CCC2CC3)ccc1F (centres unmarked) [1-C17, N-[4-fluoro-3-(prop-2-enamido)phenyl]bicyclo[2.2.2]octane-2-carboxamide]  2.94%
40. C=CC(=O)Nc1ccc(-c2nc3cc(C)ccc3o2)cc1 [1-D20, N-[4-(5-methyl-1,3-benzoxazol-2-yl)phenyl]prop-2-enamide]  1.53%
41. C=CC(=O)Nc1nc(-c2cccs2)cs1 [1-D08, N-[4-(thiophen-2-yl)-1,3-thiazol-2-yl]prop-2-enamide]  1.21%
